# Reference: US20120171123A1, “USES AND COMPOSITIONS FOR TREATMENT OF RHEUMATOID ARTHRITIS” (priority 2006, published 2012)
# “And” between values parts separate entries of the source, which are not always exact repeats. Equal values may be shown once.
# Test system: patients with active rheumatoid arthritis
# Test: Study A: EULAR response (moderate/good)
# Assay type: in vivo, human
# Settings: for Good EULAR response (%) / Moderate EULAR response (%): LOCF
# Source text: In one embodiment, the invention provides a method for determining the efficacy of a TNFα inhibitor, including a human TNFα antibody, for treating RA in a subject, using the EULAR response of a subject or patient population. European League Against Rheumatism (EULAR) Response Criteria uses a Disease Activity Score (DAS) for defining response. To be classified as responders, patients should have a significant change in DAS and also low current disease activity. Response is defined as both: (a) change in disease activity from baseline and (b) the level of disease activity reached during follow-up. Criteria used to define DAS include: Ritchie articular index, swollen joint count (44-joint count), erythrocyte sedimentation rate, and […]. A modified version of the DAS criteria, DAS28, uses a 28-joint count for swollen and tender joints. Response is defined as a combination of a significant change from baseline and the level of disease activity attained. Good response is defined as a significant decrease in DAS (>1.2) and a low level of disease activity (< or =2.4). Non-response is defined as a decrease < or =0.6, or a decrease >0.6 and < or =1.2 with an attained DAS >3.7. Any other scores are regarded as moderate responses. Thus, three categories are defined: good, moderate, and non-responders. For details of EULAR criteria see Van Gestel et al. (1996) 39(1):34-40, incorporated by reference herein.
# The study design included a 12 week open label treatment period followed by a continuation period examining safety and efficacy. […] The main inclusion criteria for the study were the following: males and females ≧18 years; rheumatoid arthritis (RA; defined by ACR criteria) for ≧3 months; unsatisfactory response (or intolerance) to at least one prior DMARD; and patients with active RA (DAS28≧3.2). Baseline demographics and disease severity is shown below in Table 1:
# Efficacy of adalimumab treatment was determined by examining signs and symptoms of the patients. Various assays were used to determine efficacy, including ACR response, EULAR response, TJC and SJC count, and DAS28.
# The objective of this study was to evaluate the impact of prior biologic therapies, in particular TNF-antagonists etanercept (ETA) and infliximab (INF), on key efficacy parameters of adalimumab therapy in patients with long-standing RA in clinical practice. To evaluate the impact of prior biological therapies, patients with moderate to severe RA enrolled at 450 sites in 11 European countries plus Australia (Study A). Patients with moderate to severe RA and an inadequate response to prior DMARD therapies were enrolled in a 12-week open-label study with an optional extension phase. […] Patients with previous biologic treatment must have received the last administration at least 8 weeks before enrollment Routine safety and efficacy data were collected at weeks 2, 6, and 12, and every 8 weeks in the extension phase. Efficacy parameters included ACR20, ACR50, ACR70, EULAR Response, HAQ, tender and swollen joint count (TJC28/SJC28), and DAS28. […] For this interim analysis, efficacy outcomes were evaluated after 12 weeks of therapy per the number and type of prior biologics used: None, any (ETA, INF, anakinra), ETA only, INF only, or ETA and INF but not anakinra.
# Patients with long-standing, moderate to severe RA were enrolled in Study A at 450 sites in 12 different countries. The study design for Study A is outlined in FIG. 21. […] Previous treatment with other biologics was allowed up to 8 weeks before enrollment. Patients met the following inclusion criteria: Age ≧18 years; RA (defined by American College of Rheumatology criteria) for ≧3 months; active, moderate to severe RA (Disease Activity Score (DAS28)≧3.2); unsatisfactory response or intolerance to at least one prior DMARD, including biologics. Efficacy assessments were performed at weeks 0 (baseline), 2, 6, and 12. […]
# [1] = Week 12, No prior ETA and/or INF (n=5711)
# [2] = Week 12, Prior ETA and/or INF (n=899)
# [3] = Week 12, concomitant Cq/Hcq + mtx (n=153)
# [4] = Week 12, concomitant LEF only (n=557)
# [5] = Week 12, concomitant MTX + LEF (n=123)
# [6] = Week 12, concomitant MTX only (n=1561)
# [7] = Week 12, concomitant QC/HQC (n=85)
# [8] = Week 12, concomitant SSZ only (n=89)
# [9] = Wk 12, concomitant MTX Im 15 mg (N=76), no other DMARD
# [10] = Wk 12, concomitant MTX Iv 15 mg (N=23), no other DMARD
# [11] = Wk 12, concomitant MTX Sc 15 mg (N=37), no other DMARD
# [12] = Wk 12, concomitant MTX oral 15 mg (N=405), no other DMARD
# [13] = Wk 12, concomitant MTX oral ≦7.5 (N=127), no other DMARD
# [14] = Wk 12, concomitant MTX oral ≧20 mg (N=216), no other DMARD
# [15] = week 12, concomitant hydroxychloroquine exclusively
# [16] = week 12, concomitant leflunomide exclusively
# [17] = week 12, concomitant mtx exclusively
# [18] = week 12, concomitant sulfasalazine exclusively
# [19] = week 12, prior biologic: ETA + INF
substance,measurement,setting,value
"adalimumab: human anti-TNF mAb (HUMIRA, Abbott Laboratories), described in U.S. Pat. No. 6,090,382 as D2E7",Good EULAR response,"12 weeks, N=2008 analysis",34%
same,Moderate EULAR response,"12 weeks, N=2008 analysis",82%
same,Moderate EULAR response,"12 weeks, no prior response to ETA and INF",50%
same,Good EULAR response (%),Week 12,32%
same,Moderate EULAR response (%),Week 12,81%
same,Good EULAR,[1],35 % of patients
same,Moderate EULAR,[1],84 % of patients
same,Good EULAR,[2],23 % of patients
same,Moderate EULAR,[2],76 % of patients
same,Good EULAR,[3],40 % of patients
same,Moderate EULAR,[3],88 % of patients
same,Good EULAR response,[4],31%
same,Moderate EULAR response,[4],79%
same,Good EULAR response,[5],29%
same,Moderate EULAR response,[5],86%
same,Good EULAR response,"Week 12, concomitant MTX + SSZ",41%
same,Moderate EULAR response,"Week 12, concomitant MTX + SSZ",89%
same,Good EULAR response,[6],39%
same,Moderate EULAR response,[6],84%
same,Good EULAR response,[7],25%
same,Moderate EULAR response,[7],85%
same,Good EULAR response,[8],39%
same,Moderate EULAR response,[8],75%
same,Good EULAR response (%),Week 28,37%
same,Moderate EULAR response (%),Week 28,81%
same,Good EULAR response (%),Week 36,37%
same,Moderate EULAR response (%),Week 36,82%
same,Good EULAR response (%),Week 52,38%
same,Moderate EULAR response (%),Week 52,82%
same,Good EULAR response,[9],38%
same,Moderate EULAR response,[9],80%
same,Good EULAR response,[10],41%
same,Moderate EULAR response,[10],86%
same,Good EULAR response,[11],25%
same,Moderate EULAR response,[11],86%
same,Good EULAR response,[12],39%
same,Moderate EULAR response,[12],86%
same,Good EULAR response,[13],36%
same,Moderate EULAR response,[13],84%
same,Good EULAR response,[14],50%
same,Moderate EULAR response,[14],89%
same,at least a Moderate EULAR response,"week 2, French patients",64%
same,Good EULAR response,"week 12, 1 prior biologic",25%
same,Moderate EULAR response,"week 12, 1 prior biologic",78%
same,Good EULAR response,"week 12, 2 prior biologics",11%
same,Moderate EULAR response,"week 12, 2 prior biologics",76%
same,Good EULAR response,"week 12, 3 prior biologics",8%
same,Moderate EULAR response,"week 12, 3 prior biologics",75%
same,at least a Moderate EULAR response,"week 12, French patients",80%
same,Good EULAR response,"week 12, all patients",34%
same,Moderate EULAR response,"week 12, all patients",83%
same,Good EULAR,[15],25 % of patients
same,Moderate EULAR,[15],75 % of patients
same,Good EULAR,[16],31 % of patients
same,Moderate EULAR,[16],79 % of patients
same,Good EULAR,[17],39 % of patients
same,Moderate EULAR,[17],84 % of patients
same,Good EULAR,[18],31 % of patients
same,Moderate EULAR,[18],79 % of patients
same,Good EULAR response,"week 12, no prior biologic",34%
same,Moderate EULAR response,"week 12, no prior biologic",81%
same,Good EULAR,"week 12, prior anakinra",36 % of patients
same,Moderate EULAR,"week 12, prior anakinra",75 % of patients
same,Good EULAR,"week 12, prior biologic (any)",22 % of patients
same,Moderate EULAR,"week 12, prior biologic (any)",77 % of patients
same,Good EULAR response,"week 12, prior etanercept only",25% and 24%
same,Moderate EULAR response,"week 12, prior etanercept only",76%
same,Good EULAR response,"week 12, prior infliximab only",22%
same,Moderate EULAR response,"week 12, prior infliximab only",80%
same,Good EULAR,"week 12, prior biologic: Any",23 % of patients
same,Moderate EULAR,"week 12, prior biologic: Any",75 % of patients
same,Good EULAR,"week 12, prior biologic: ETA",21 % of patients
same,Moderate EULAR,"week 12, prior biologic: ETA",74 % of patients
same,Good EULAR,[19],12 % of patients
same,Moderate EULAR,[19],61 % of patients
same,Good EULAR,"week 12, prior biologic: INF",25 % of patients
same,Moderate EULAR,"week 12, prior biologic: INF",78 % of patients
same,Good EULAR,"week 12, prior biologic: None",39 % of patients
same,Moderate EULAR,"week 12, prior biologic: None",82 % of patients
